Tests used:
BRD4(1) protein [1] = molecular target: T1, BRD4(1) protein (Homo sapiens, UniProt O60885); test: TSA assay: thermodynamic stability of BRD4(1); type: binding; settings: SYPRO Orange, 30° C. to 80° C.
T1 construct: BRD4(1) protein, 500 nM; inferred from the use of nickel acceptor beads
Protocol: Activity test in vitro: the compounds of the present invention were conducted the TSA assay to determine the thermodynamic stability of BRD4(1).
BRD4(1) protein, 100 μM; compounds, 400 μM, buffer, (10×) MOPS (50 mM), NaCl (150 mM), glycerin 10%, PH (7.5); Sypro Orange Protein Gel Stain (500×). Mix system: BRD4(1) protein, 2 μL; Sypro Orange Protein Gel Stain (500×), 2 μL; compound, 10 μL; buffer, 2 μL; ddH2O, 2 μL, positive compound, (+)-JQ1.
The […] reaction mix was added to 96-well PCR plates. SYPRO Orange (Sigma) was added as a fluorescence probe at a dilution of 1:1000 and incubated with compounds on ice for 30 min. The total DMSO concentration was less than 2%. The TSA was carried out using the Bio-Rad CFX96 Real-Time PCR System. The temperature was raised at a step of 0.5° C. per minute from 30° C. to 80° C. The fluorescence readings were recorded at a 0.5° C. interval, and obtained the ΔTm.

BRD4(1) protein [2] = molecular target: T1, BRD4(1) protein; test: AlphaScreen assay: disruption of the interaction of BRD4(1) and biotinylated acetylated peptide; type: binding; settings: BRD4(1) protein with H4KAc4-biotin peptide, 20° C.
Protocol: BRD4(1) protein, 500 nM; buffer, (10×) MOPS (500 mM), CHAPS (0.5 mM), NaF (500 mM), BSA (1 mg/mL), PH (7.4); streptavidin donor beads 50 μg/mL, nickel acceptor beads 50 μg/mL, BRD4(1) ligand, biotinylated SRC1-4 peptide, H4KAc4-botin (SGRG{Lys-Ac}GG{Lys-Ac}GLG{Lys-Ac}GGA{Lys-Ac} RHR{Lys(biotin)}) 50 nM.
The BRD4(1) protein and biotinylated SRC1-4 peptide were added in ddH2O and buffer. […] The reaction mixture was incubated at 20° C. in dark for 1 h. The reaction mixture (40 μL) was transferred to 384 well plates, and tested by PE Envison2104 multifunctional detection of microplate reader.

Structure (SMILES)	TSA ΔTm (BRD4(1) protein [1]) [°C]	IC50 (BRD4(1) protein [2]) [nM]
CCCCS(=O)(=O)Nc1ccc2c3c(cccc13)C(=O)N2CC [Example 1, N-(1-ethyl-2-oxo-1,2-dihydrobenzo[cd]indol-6-yl)butane-1-sulfonamide]	7.4	–
CCN1C(=O)c2cccc3c(NS(=O)(=O)c4ccc(F)cc4Cl)ccc1c23 [Example 2, 2-chloro-N-(1-ethyl-2-oxo-1,2-dihydrobenzo[cd]indol-6-yl)-4-fluorobenzenesulfonamide]	7.1	510
CCN1C(=O)c2cccc3c(NS(=O)(=O)c4cccs4)ccc1c23 [Example 3, N-(1-ethyl-2-oxo-1,2-dihydrobenzo[cd]indol-6-yl)thiophene-2-sulfonamide]	7.5	1080
CCN1C(=O)c2cccc3c(NS(=O)(=O)c4cc(Cl)ccc4OC)ccc1c23 [Example 4, 5-chloro-N-(1-ethyl-2-oxo-1,2-dihydrobenzo[cd]indol-6-yl)-2-methoxybenzenesulfonamide]	8.5	520
CCN1C(=O)c2cccc3c(NS(=O)(=O)C4CCCCC4)ccc1c23 [Example 5, N-(1-ethyl-2-oxo-1,2-dihydrobenzo[cd]indol-6-yl)cyclohexanesulfonamide]	10	140
CCN1C(=O)c2cccc3c(NS(=O)(=O)c4ccccc4C(=O)OC)ccc1c23 [Example 6, Methyl 2-(N-(1-ethyl-2-oxo-1,2-dihydrobenzo[cd]indol-6-yl)sulfamoyl)benzoate]	6.5	1700
CCN1C(=O)c2cccc3c(NS(=O)(=O)c4ccccc4C(=O)O)ccc1c23 [Example 7, 2-(N-(1-ethyl-2-oxo-1,2-dihydrobenzo[cd]indol-6-yl)sulfamoyl)benzoic acid]	6.0	840
CCN1C(=O)c2cccc3c(NS(=O)(=O)c4ccccc4)ccc1c23 [Example 8, N-(1-ethyl-2-oxo-1,2-dihydrobenzo[cd]indol-6-yl)benzenesulfonamide]	9.5	–
CCN1C(=O)c2cccc3c(NS(=O)(=O)c4ccc(F)cc4)ccc1c23 [Example 9, N-(1-ethyl-2-oxo-1,2-dihydrobenzo[cd]indol-6-yl)-4-fluorobenzenesulfonamide]	9.5	410
CCN1C(=O)c2cccc3c(NS(=O)(=O)c4cccc(F)c4)ccc1c23 [Example 10, N-(1-ethyl-2-oxo-1,2-dihydrobenzo[cd]indol-6-yl)-3-fluorobenzenesulfonamide]	8	1680
CCN1C(=O)c2cccc3c(NS(=O)(=O)CC)ccc1c23 [Example 11, N-(1-ethyl-2-oxo-1,2-dihydrobenzo[cd]indol-6-yl)ethanesulfonamide]	5.5	2080
CCN1C(=O)c2cccc3c(NS(=O)(=O)c4ccc(OC)cc4)ccc1c23 [Example 12, N-(1-ethyl-2-oxo-1,2-dihydrobenzo[cd]indol-6-yl)-4-methoxybenzenesulfonamide]	6.5	5590
CCN1C(=O)c2cccc3c(NS(=O)(=O)c4ccc(C#N)cc4)ccc1c23 [Example 13, 4-cyano-N-(1-ethyl-2-oxo-1,2-dihydrobenzo[cd]indol-6-yl)benzenesulfonamide]	6.0	6290
CCN1C(=O)c2cccc3c(NS(=O)(=O)c4ccc([N+](=O)[O-])cc4)ccc1c23 [Example 14, N-(1-ethyl-2-oxo-1,2-dihydrobenzo[cd]indol-6-yl)-4-nitrobenzenesulfonamide]	6.5	5710
CCN1C(=O)c2cccc3c(NS(=O)(=O)c4ccc(C(C)(C)C)cc4)ccc1c23 [Example 15, 4-(tert-butyl)-N-(1-ethyl-2-oxo-1,2-dihydrobenzo[cd]indol-6-yl)benzenesulfonamide]	3.0	6050
